# Tests used:
# [1] = target: human recombinant transporter protein dopamine (DAT) (Homo sapiens (Human), UniProt Q01959); experiment: radioligand binding assay, dopamine transporter; conditions: 11 test concentrations 0.1 nM to 1 μM, duplicates, hydrochloride salts
# Method: (§1) The monoamine transporters inhibitory activities of selected cycloalkylmethylamines of Formula (I) are reported herein. The compounds were evaluated using well established radioligand binding assays protocols (Galli, A. et al., J. Exp. Biol. 1995, 198, 2197-2212; Giros, B. et al., Trends Pharmcol. Sci. 1993, 14, 43-49; Gu, H. et al., J. Biol. Chem. 1994, 269(10), 7124-7130; Shearman, L. P. et al, Am. J. Physiol., 1998, 275(6 Pt 1), C1621-1629; Wolf, W. A. et al., J. Biol. Chem. 1992, 267(29), 20820-20825). The human recombinant transporter proteins dopamine (DAT), norepinephrine (NET) and serotonin (SERT) were selected for the in vitro assays. The radioligand binding assays were carried out at 11 different test concentrations 0.1 nM to 1 μM.
# (§2) The assays were carried out in duplicates and the quantitative data are reported as Ki in the Table 1.
# [2] = target: human recombinant transporter protein serotonin (SERT) (Homo sapiens (Human), UniProt P31645); experiment: radioligand binding assay, serotonin transporter; conditions: 11 test concentrations 0.1 nM to 1 μM, duplicates, hydrochloride salts
# Method: as §1, §2
# [3] = target: human recombinant transporter protein norepinephrine (NET) (Homo sapiens (Human), UniProt P23975); experiment: radioligand binding assay, norepinephrine transporter; conditions: 11 test concentrations 0.1 nM to 1 μM, duplicates, hydrochloride salts
# Method: as §1, §2
# [4] = active metabolites of sibutramine; cited from earlier work
# Sequence of human recombinant transporter protein dopamine (DAT) (Q01959 whole entry): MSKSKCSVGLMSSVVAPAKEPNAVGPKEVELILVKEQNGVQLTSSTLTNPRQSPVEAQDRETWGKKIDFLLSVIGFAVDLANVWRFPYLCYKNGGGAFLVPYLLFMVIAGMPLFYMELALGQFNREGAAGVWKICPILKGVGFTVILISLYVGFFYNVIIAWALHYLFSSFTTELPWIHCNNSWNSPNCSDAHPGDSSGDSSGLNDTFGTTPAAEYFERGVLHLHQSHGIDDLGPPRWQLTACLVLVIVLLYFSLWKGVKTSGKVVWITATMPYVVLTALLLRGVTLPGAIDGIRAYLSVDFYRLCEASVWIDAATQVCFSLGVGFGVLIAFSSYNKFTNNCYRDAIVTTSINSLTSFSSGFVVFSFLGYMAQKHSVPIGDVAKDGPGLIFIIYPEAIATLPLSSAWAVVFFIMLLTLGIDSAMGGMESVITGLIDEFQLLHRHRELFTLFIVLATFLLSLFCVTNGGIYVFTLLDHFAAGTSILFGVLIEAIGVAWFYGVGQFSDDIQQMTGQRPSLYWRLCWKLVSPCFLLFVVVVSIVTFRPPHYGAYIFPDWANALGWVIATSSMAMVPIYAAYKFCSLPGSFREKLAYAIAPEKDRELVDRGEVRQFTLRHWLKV
# Sequence of human recombinant transporter protein norepinephrine (NET) (P23975 whole entry): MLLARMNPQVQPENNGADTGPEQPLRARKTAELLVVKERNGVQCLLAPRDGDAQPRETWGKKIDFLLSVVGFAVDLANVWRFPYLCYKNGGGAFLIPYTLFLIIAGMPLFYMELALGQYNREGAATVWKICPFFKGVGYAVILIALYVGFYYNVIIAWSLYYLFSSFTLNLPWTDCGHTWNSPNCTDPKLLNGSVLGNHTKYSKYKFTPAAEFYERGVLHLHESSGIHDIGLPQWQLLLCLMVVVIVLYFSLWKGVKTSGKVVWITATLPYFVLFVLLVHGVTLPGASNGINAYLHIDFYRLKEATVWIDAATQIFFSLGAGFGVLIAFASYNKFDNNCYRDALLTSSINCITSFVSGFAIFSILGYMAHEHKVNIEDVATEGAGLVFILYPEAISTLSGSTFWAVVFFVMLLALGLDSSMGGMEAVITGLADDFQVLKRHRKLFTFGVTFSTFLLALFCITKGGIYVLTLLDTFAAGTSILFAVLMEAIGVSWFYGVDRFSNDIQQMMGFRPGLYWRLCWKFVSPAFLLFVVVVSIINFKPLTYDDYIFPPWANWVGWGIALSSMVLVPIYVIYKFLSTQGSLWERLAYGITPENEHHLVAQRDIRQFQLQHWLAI
SMILES,Ki [1] [nM],Ki [2] [nM],Ki [3] [nM],elimination half-life [4] [h]
"CCOCCCCNC(CC(C)C)C1(c2ccc(SC)cc2)CCC1 (centres unmarked) [Compound 7g, N-(4-Ethoxybutyl)-3-methyl-1-(1-(4-(methylthio)phenyl)cyclobutyl)butan-1-amine]",92,2.99,37.2,
"CCOCCNC(CC(C)C)C1(c2ccc(Cl)c(Cl)c2)CCC1 (centres unmarked) [Compound 8a, 1-(1-(3,4-Dichlorophenyl)cyclobutyl)-N-(2-ethoxyethyl)-3-methylbutan-1-amine]",2.38,1.4,46.7,
"CCCOCCCN[C@H](CC(C)C)C1(c2ccc(Cl)c(Cl)c2)CCC1 [Compound 8d, (R)-1-(1-(3,4-Dichlorophenyl)cyclobutyl)-N-(3-propoxypropyl)-3-methylbutan-1-amine]",5.45,3.8,72,
"COCCCCN[C@H](CC(C)C)C1(c2ccc(Cl)c(Cl)c2)CCC1 [Compound 8h, (R)-1-(1-(3,4-Dichlorophenyl)cyclobutyl)-N-(4-methoxybutyl)-3-methylbutan-1-amine]",2.39,1.19,12.7,
"CCOCCCCN[C@H](CC(C)C)C1(c2ccc(Cl)c(Cl)c2)CCC1 [Compound 8j, (R)-1-(1-(3,4-Dichlorophenyl)cyclobutyl)-N-(4-ethoxybutyl)-3-methylbutan-1-amine]",1.16,0.8,11,
"CCSCCCCNC(CC(C)C)C1(c2ccc(Cl)cc2)CCC1 (centres unmarked) [Compound 12b, 1-(1-(4-Chlorophenyl)cyclobutyl)-N-(4-(ethylthio)butyl)-3-methylbutan-1-amine]",67.6,18.8,51.9,
"CCOc1ccc(C2(C(CC(C)C)NCCSCC)CCC2)cc1 (centres unmarked) [Compound 12c, 1-(1-(4-Ethoxyphenyl)cyclobutyl)-N-(2-(ethylthio)ethyl)-3-methylbutan-1-amine]",116,3.31,1420,
"CCSCCCCNC(CC(C)C)C1(c2ccc(Cl)c(Cl)c2)CCC1 (centres unmarked) [Compound 13c, 1-(1-(3,4-Dichlorophenyl)cyclobutyl)-N-(4-(ethylthio)butyl)-3-methylbutan-1-amine]",23.9,14.8,17.1,
"CCCCSCCCCNC(CC(C)C)C1(c2ccc(Cl)c(Cl)c2)CCC1 (centres unmarked) [Compound 13d, N-(4-(Butylthio)butyl)-1-(1-(3,4-dichlorophenyl)cyclobutyl)-3-methylbutan-1-amine]",104,65.3,51,
"CCSCCNC(CC)C1(c2ccc(Cl)c(Cl)c2)CCC1 (centres unmarked) [Compound 13f, 1-(1-(3,4-dichlorophenyl)cyclobutyl)-N-(2-(ethylthio)ethyl)propan-1-amine]",49.2,224,119,
"CCS(=O)(=O)CCCCNC(CC(C)C)C1(c2ccc(Cl)c(Cl)c2)CCC1 (centres unmarked) [Compound 17a, 1-(1-(3,4-Dichlorophenyl)cyclobutyl)-N-(4-(ethylsulfonyl)butyl)-3-methylbutan-1-amine]",29.4,38.4,44.7,
CNC(CC(C)C)C1(c2ccc(Cl)cc2)CCC1 (centres unmarked) [Compound M1],,,,14
CC(C)CC(N)C1(c2ccc(Cl)cc2)CCC1 (centres unmarked) [Compound M2],,,,16
